Source: patent publication US12491173B2, “Metabolism-improving agent comprising rare fatty acid” (Noster Inc., priority 2014, dated 2025)

Columns and labels:
[1] = biological target: T1, fusion protein of PPARγ ligand binding region and GAL4 DNA binding region (Homo sapiens, UniProt P37231); assay: PPARγ ligand activity, GAL4 fusion luciferase reporter assay in CV-1 cell; type: cell-based; details: sample 10 μM and 30 μM, vs ethanol negative control, FIG. 3
T1 construct: expressed in transfected cells; host or cells: CV-1 cell
T1 sequence (P37231 238-503 limits assumed): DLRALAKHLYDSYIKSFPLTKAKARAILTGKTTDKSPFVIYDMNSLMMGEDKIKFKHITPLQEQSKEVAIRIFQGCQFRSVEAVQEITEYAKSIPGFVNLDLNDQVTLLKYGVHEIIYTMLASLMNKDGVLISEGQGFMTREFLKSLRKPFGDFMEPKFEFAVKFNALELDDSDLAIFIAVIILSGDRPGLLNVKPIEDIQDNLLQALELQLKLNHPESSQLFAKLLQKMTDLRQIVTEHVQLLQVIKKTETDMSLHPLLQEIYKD
Experimental: (§1) To evaluate the function of hydroxylated fatty acid and oxo fatty acid and the like, PPARα, γ-activating action was measured first. The measurement was performed in reference to Nobuyuki Takahashi et al., FEBS Letters 514 (2002) p. 315-322, “Dual action of isoprenols from herbal medicines on both PPARgamma and PPARalpha in 3T3-L1 adipocytes and HepG2 hepatocytes.”, the section of Materials and Methods “Reporter plasmids and luciferase assays”. To be specific, PPARα,γ ligand activity was measured by a reporter assay that evaluates binding to a fusion protein of PPAR ligand binding region and GAL4 DNA binding region and target gene activation, based on the expression of luciferase. Specifically, a plasmid comprising a DNA encoding a fusion protein of PPARα,γ ligand binding region and GAL4 DNA binding region and a reporter plasmid wherein luciferase linked to GAL4 bound DNA sequence were introduced into CV-1 cell, a ligand described below was added to the cell, the cell was incubated and the luciferase activity was detected.
(§2) The concentration (10 μM and 30 μM) of the sample was adjusted with ethanol. Ethanol was used as a negative control, and PPARα,γ ligands GW7647 (10 nM) and troglitazone (5 μM) were used as a positive control.

[2] = biological target: T2, fusion protein of PPARα ligand binding region and GAL4 DNA binding region (Homo sapiens, UniProt Q07869); assay: PPARα ligand activity, GAL4 fusion luciferase reporter assay in CV-1 cell; type: cell-based; details: sample 10 μM and 30 μM, vs ethanol negative control, FIG. 2
T2 construct: expressed in transfected cells; host or cells: CV-1 cell
T2 sequence (Q07869 239-466 limits assumed): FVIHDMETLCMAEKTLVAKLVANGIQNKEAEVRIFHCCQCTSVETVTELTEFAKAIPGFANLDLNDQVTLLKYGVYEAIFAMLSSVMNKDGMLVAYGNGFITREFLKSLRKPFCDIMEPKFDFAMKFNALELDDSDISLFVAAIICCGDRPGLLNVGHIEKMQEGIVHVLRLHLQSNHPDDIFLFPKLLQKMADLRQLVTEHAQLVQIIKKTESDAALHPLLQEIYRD
Experimental: as §1, §2

Row | Compound | PPARγ agonist activity (relative luciferase activity) [1] | PPARα agonist activity (relative luciferase activity) [2]
1 | CC/C=C\CC(=O)CC/C=C\CCCCCCCC(=O)O [13-OXO ALA, 13-oxo-cis-9,cis-15-octadecadienoic acid] | strong PPARγ agonist activity | –
2 | CCCCCC(=O)CC/C=C\C/C=C\CCCCC(=O)O [13-OXO GLA, 13-oxo-cis-6,cis-9-octadecadienoic acid] | – | strong PPARα agonist activity
